Measurements published in patent US20060111436A1, “Compositions and treatments for modulating kinase and/or HMG-CoA reductase” (priority 2004, published 2006).

Tests used:
Format in all cases: biochemical
[1] = target: T1, human recombinant p38α protein kinase (Homo sapiens, UniProt Q16539); test: Cell-free p38α MAP kinase modulation assay (phosphorylation of myelin basic protein); settings: for p38α AC50 / AC50: concentration to activate phosphorylation of myelin basic protein by 50%, ANO = activation not observed at any concentration tested; for IC50 / p38α IC50: concentration to inhibit phosphorylation of myelin basic protein by 50%, INO = inhibition not observed at any concentration tested; for p38α Max % Act: maximum observed increase in p38 MAP kinase activity in presence of compound; for effect on p38α MAP kinase activity, in words: text summary of Table I; for p38α concentration at which maximum increase in activity is observed: value in parentheses in Max % Act
T1 construct: purchased UBI 14-251; host or cells: E. coli
Method: In vitro cell-free p38α MAP kinase modulation assays were conducted by the method as described in Clerk et al., supra, (1998). Briefly, human recombinant p38α protein kinase expressed in E. Coli (UBI #14-251) was used. Myelin basic protein (MBP, UBI #13-110) was employed as substrate, and microtiter plate wells were coated with MBP (0.01 mg/ml) overnight at 4° C. Candidate compound and/or vehicle was preincubated with 0.075 μg/mL enzyme in modified HEPES buffer pH 7.4 at 25° C. for 15 minutes. The reaction was initiated by addition of 100 μM ATP and allowed to proceed for another 60 minutes. The reaction was terminated by aspirating the solution. Phosphorylated MBP was detected by incubation with a mouse monoclonal IgG2a anti-phosphoMBP antibody. Bound anti-phosphoMBP antibody was quantitated by incubation with a HRP conjugated goat anti-mouse IgG.

[2] = target: recombinant human p38β MAP kinase (Homo sapiens, UniProt Q15759); test: Cell-free p38β MAP kinase modulation assay (phosphorylation of myelin basic protein); settings: for p38β Max % Act: maximum observed increase in p38 MAP kinase activity in presence of compound; for p38β concentration at which maximum increase in activity is observed: value in parentheses in Max % Act; for AC50: concentration to activate phosphorylation of myelin basic protein by 50%, ANO = activation not observed at any concentration tested; for effect on p38β MAP kinase activity, in words: text summary of Table I
[3] = target: T2, recombinant human p38δ MAP kinase (Homo sapiens, UniProt O15264); test: Cell-free p38δ MAP kinase modulation assay (phosphorylation of myelin basic protein); settings: for AC50: concentration to activate phosphorylation of myelin basic protein by 50%, ANO = activation not observed at any concentration tested; for p38δ Max % Act: maximum observed increase in p38 MAP kinase activity in presence of compound; for effect on p38δ MAP kinase activity, in words: text summary of Table I; for p38δ concentration at which maximum increase in activity is observed: value in parentheses under Max % Act
T2 sequence (O15264 1-365): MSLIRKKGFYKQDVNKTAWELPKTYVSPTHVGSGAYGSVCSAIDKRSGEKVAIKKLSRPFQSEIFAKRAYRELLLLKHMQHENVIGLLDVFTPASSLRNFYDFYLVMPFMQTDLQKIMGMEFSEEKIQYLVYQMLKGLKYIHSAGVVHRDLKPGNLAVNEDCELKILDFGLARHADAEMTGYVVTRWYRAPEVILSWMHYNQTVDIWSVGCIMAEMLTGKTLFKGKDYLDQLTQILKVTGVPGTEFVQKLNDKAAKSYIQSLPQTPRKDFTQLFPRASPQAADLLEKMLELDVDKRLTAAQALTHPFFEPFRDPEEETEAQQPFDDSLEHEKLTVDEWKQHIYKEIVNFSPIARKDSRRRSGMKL

[4] = target: T3, recombinant human p38γ MAP kinase (Homo sapiens, UniProt P53778); test: Cell-free p38γ MAP kinase modulation assay (phosphorylation of myelin basic protein); settings: for p38γ Max % Act: maximum observed increase in p38 MAP kinase activity in presence of compound; for effect on p38γ MAP kinase activity, in words: text summary of Table I; for p38γ concentration at which maximum increase in activity is observed: value in parentheses under Max % Act
T3 sequence (P53778 1-367): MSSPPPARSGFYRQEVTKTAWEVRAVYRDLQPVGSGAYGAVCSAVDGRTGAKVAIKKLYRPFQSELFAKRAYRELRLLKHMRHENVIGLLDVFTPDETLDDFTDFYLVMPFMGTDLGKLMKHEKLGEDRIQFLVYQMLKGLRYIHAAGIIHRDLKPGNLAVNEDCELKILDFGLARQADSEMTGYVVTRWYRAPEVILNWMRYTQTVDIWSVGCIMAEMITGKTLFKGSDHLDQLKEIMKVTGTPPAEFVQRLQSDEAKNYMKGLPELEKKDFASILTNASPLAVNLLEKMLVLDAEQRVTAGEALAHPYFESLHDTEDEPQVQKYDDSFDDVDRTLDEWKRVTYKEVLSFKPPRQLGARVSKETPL

[5] = concentration to inhibit phosphorylation of myelin basic protein by 50%, INO = inhibition not observed at any concentration tested
[6] = concentration to activate phosphorylation of myelin basic protein by 50%, ANO = activation not observed at any concentration tested

Sequence of recombinant human p38β MAP kinase (Q15759 whole entry): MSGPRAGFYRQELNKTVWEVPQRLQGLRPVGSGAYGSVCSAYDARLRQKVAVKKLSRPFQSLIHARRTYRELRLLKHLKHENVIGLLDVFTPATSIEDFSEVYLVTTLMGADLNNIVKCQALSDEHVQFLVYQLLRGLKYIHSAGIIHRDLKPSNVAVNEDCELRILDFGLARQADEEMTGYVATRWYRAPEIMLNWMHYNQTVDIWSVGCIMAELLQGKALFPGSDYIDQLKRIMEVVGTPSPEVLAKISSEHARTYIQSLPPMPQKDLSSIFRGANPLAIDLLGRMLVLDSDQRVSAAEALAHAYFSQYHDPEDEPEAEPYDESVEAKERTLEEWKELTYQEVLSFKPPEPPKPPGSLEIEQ
T1 sequence (Q16539 whole entry): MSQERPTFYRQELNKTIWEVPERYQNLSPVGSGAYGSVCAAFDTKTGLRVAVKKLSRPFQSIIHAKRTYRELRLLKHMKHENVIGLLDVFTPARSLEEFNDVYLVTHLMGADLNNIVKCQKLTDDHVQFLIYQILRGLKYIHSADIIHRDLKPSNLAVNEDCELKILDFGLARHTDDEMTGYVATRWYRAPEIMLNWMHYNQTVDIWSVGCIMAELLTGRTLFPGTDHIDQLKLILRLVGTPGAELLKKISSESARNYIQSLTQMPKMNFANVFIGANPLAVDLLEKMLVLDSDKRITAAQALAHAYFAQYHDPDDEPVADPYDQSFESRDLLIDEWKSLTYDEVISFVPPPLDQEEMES

Row | SMILES | p38β Max % Act [2] [%] | p38β concentration at which maximum increase in activity is observed [2] [µM] | AC50 [3] [µM] | p38δ Max % Act [3] [%] | effect on p38δ MAP kinase activity, in words [3] | p38δ concentration at which maximum increase in activity is observed [3] | AC50 [4, 6] [µM] | p38γ Max % Act [4] [%] | effect on p38γ MAP kinase activity, in words [4] | p38γ concentration at which maximum increase in activity is observed [4] | p38γ IC50 [4, 5] | p38α AC50 [1] | IC50 [1] [µM] | also measured
1 | CC(C)c1c(C(=O)Nc2ccccc2)c(-c2ccccc2)c(-c2ccc(F)cc2)n1CC[C@@H](O)C[C@@H](O)CC(=O)[O-].CC(C)c1c(C(=O)Nc2ccccc2)c(-c2ccccc2)c(-c2ccc(F)cc2)n1CC[C@@H](O)C[C@@H](O)CC(=O)[O-].[Ca+2] [Atorvastatin calcium, atorvastatin calcium, reference compound] | – | – | – | – | – | – | – | – | – | – | – | ANO^d | – | –
2 | CC(C)c1c(C(=O)Nc2ccccc2)c(-c2ccccc2)c(-c2ccc(F)cc2)n1CC[C@@H]1C[C@@H](O)CC(=O)O1 [Atorvastatin lactone, atorvastatin lactone] | 19 | 10 | 30 to 100 | 112 | showed both inhibitory and activation activities | (30 μM) | ~10 | 62 | showed both inhibitory and activation activities | (10 μM) | – | ANO | 31 | IC50 [2, 5]: 94 µM; IC50 [3, 5]: 83 µM; p38δ Max % Act ([3]; listed as atorvastatin lacton): about 112%; IC50 [4, 5]: ~50 µM
3 | COCc1c(C(C)C)nc(C(C)C)c(C=CC(O)CC(O)CC(=O)[O-])c1-c1ccc(F)cc1.COCc1c(C(C)C)nc(C(C)C)c(C=CC(O)CC(O)CC(=O)[O-])c1-c1ccc(F)cc1.[Ca+2] (centres unmarked) [Cerivastatin calcium, reference compound] | – | – | – | – | – | – | – | – | – | – | – | ANO | > 30 | –
4 | CC(C)n1c(/C=C/C(O)CC(O)CC(=O)O)c(-c2ccc(F)cc2)c2ccccc21 (centres unmarked) [Fluvastatin sodium, fluvastatin sodium, reference compound] | – | – | – | – | – | – | – | – | – | – | – | ANO | – | –
5 | O=C([O-])C[C@H](O)C[C@H](O)/C=C/c1c(C2CC2)nc2ccccc2c1-c1ccc(F)cc1.O=C([O-])C[C@H](O)C[C@H](O)/C=C/c1c(C2CC2)nc2ccccc2c1-c1ccc(F)cc1.[Ca+2] [Pitavastatin calcium, reference compound] | – | – | – | – | – | – | – | – | – | – | INO | ANO | 101 | p38γ AC50 [4, 6]: ANO
6 | CC(C)c1nc(N(C)S(C)(=O)=O)nc(-c2ccc(F)cc2)c1/C=C/[C@@H](O)C[C@@H](O)CC(=O)O [Rosuvastatin sodium, reference compound] | – | – | – | – | – | – | – | – | – | – | – | ANO | – | –

Now from value to compound, other results behind:

Row | p38β Max % Act [2] [%] | p38β concentration at which maximum increase in activity is observed [2] [µM] | AC50 [3] [µM] | p38δ Max % Act [3] [%] | effect on p38δ MAP kinase activity, in words [3] | p38δ concentration at which maximum increase in activity is observed [3] | AC50 [4, 6] [µM] | p38γ Max % Act [4] [%] | effect on p38γ MAP kinase activity, in words [4] | p38γ concentration at which maximum increase in activity is observed [4] | p38γ IC50 [4, 5] | SMILES | p38α AC50 [1] | IC50 [1] [µM] | also measured
7 | 143 | 10 | ~8 | 158 | can activate | (100 μM) | ~5 | 115 | can activate | (100 μM) | INO | COCc1c(C(C)C)nc(C(C)C)c(/C=C/[C@@H]2C[C@@H](O)CC(=O)O2)c1-c1ccc(F)cc1 [Cerivastatin lactone, cerivastatin lactone] | – | – | AC50 [2]: ~5 µM; p38β IC50 [2, 5]: INO; effect on p38β MAP kinase activity, in words [2]: can activate; p38δ IC50 [3, 5]: INO; AC50 [1]: ~10 µM; p38α IC50 [1]: INO; p38α Max % Act [1]: 76%; effect on p38α MAP kinase activity, in words [1]: can activate; p38α concentration at which maximum increase in activity is observed [1]: 100 µM
8 | 185 | 100 | ~2 | 611 | can activate | (100 μM) | 3 to 10 | 127 | can activate | (100 μM) | INO | CCC(C)(C)C(=O)O[C@H]1C[C@@H](C)C=C2C=C[C@H](C)[C@H](CC[C@@H]3C[C@@H](O)CC(=O)O3)[C@H]21 [Simvastatin lactone, simvastatin lactone] | – | – | AC50 [2]: ~15 µM; p38β IC50 [2, 5]: INO; effect on p38β MAP kinase activity, in words [2]: can activate; p38δ IC50 [3, 5]: INO; AC50 [1]: ~20 µM; p38α IC50 [1]: INO^e; p38α Max % Act [1]: 207%; effect on p38α MAP kinase activity, in words [1]: can activate; p38α concentration at which maximum increase in activity is observed [1]: 100 µM
